Test results reported in patent publication US10865191B2, “Heterocyclic compounds useful as modulators of TNF alpha” (BRISTOL-MYERS SQUIBB COMPANY, priority 2015, dated 2020).
Counter-ions that a name gives are not always drawn.

Target: TNFα (Homo sapiens, UniProt P01375)
Assay: TNF induced HEK-Blue assay (NF-kB-driven secreted alkaline phosphatase reporter)
Assay type: cell-based
Conditions: TNFα 0.5 ng/mL, HEK-Blue-CD40L cells, 18 h; read-out: TNF induced HEK-Blue assay IC50 value
Outline: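 HEK-Blue-CD40L cells (NF-kB-driven SEAP reporter), 20,000/well, added after 30 min pre-incubation of compound (0.004–25 μM final) with TNFα 0.5 ng/mL final at 37 °C; 18 h incubation. SEAP read with QUANTI-Blue at 620 nm; IC50 from 4-parameter logistic fit, normalized to unstimulated and stimulated DMSO controls.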

TNFα, sequence (P01375 77-233 limits assumed): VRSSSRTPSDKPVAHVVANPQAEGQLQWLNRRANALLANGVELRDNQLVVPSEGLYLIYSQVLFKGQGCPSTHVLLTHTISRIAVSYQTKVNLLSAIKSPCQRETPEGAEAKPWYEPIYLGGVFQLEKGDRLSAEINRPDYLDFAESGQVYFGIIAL

Compound | IC50 [nM]
Cc1nc2ccc(-c3cnc(C(C)(C)O)nc3)cc2c(N[C@H](C)c2cc(C(C)(C)O)ccc2F)c1Cl [Example 408, (R)-2-(5-(3-chloro-4-((1-(2-fluoro-5-(2-hydroxypropan-2-yl)phenyl)ethyl)amino)-2-methylquinolin-6-yl)pyrimidin-2-yl)propan-2-ol, TFA Salt] | < 1000
CC(=O)c1ccc(F)c([C@@H](C)Nc2c(Cl)cnc3ccc(-c4cnc(C(C)(C)O)nc4)cc23)c1 [Example 409, (R)-1-(3-(1-((3-chloro-6-(2-(2-hydroxypropan-2-yl)pyrimidin-5-yl)quinolin-4-yl)amino)ethyl)-4-fluorophenyl)ethan-1-one] | < 1000
C[C@@H](Nc1c(Cl)cnc2ccc(-c3cnc(C(C)(C)O)nc3)cc12)c1cc(C#Cc2ccccc2)ccc1F [Example 411, (R)-2-(5-(3-chloro-4-((1-(2-fluoro-5-(phenylethynyl)phenyl)ethyl)amino)quinolin-6-yl)pyrimidin-2-yl)propan-2-ol] | 1000 to 10000
Cc1nc2ccc(-c3cnc(C(C)(C)O)nc3)cc2c(N[C@H](C)c2cc(-c3nnn[nH]3)ccc2F)c1Cl [Example 412, (R)-2-(5-(3-chloro-4-((1-(2-fluoro-5-(1H-tetrazol-5-yl)phenyl)ethyl)amino)-2-methylquinolin-6-yl)pyrimidin-2-yl)propan-2-ol] | 10000 to 25000
C[C@@H](Nc1c(Cl)cnc2ccc(-c3cnc(C(C)(C)O)nc3)cc12)c1cc(-c2ncn[nH]2)ccc1F [Example 414, (R)-2-(5-(3-chloro-4-((1-(2-fluoro-5-(1H-1,2,4-triazol-5-yl)phenyl)ethyl)amino)quinolin-6-yl)pyrimidin-2-yl)propan-2-ol] | < 1000
COC(=O)c1ccc(F)c([C@@H](C)Nc2c(Cl)cnc3ccc(-c4cnc(C(C)(C)O)nc4)cc23)c1 [Example 415, Methyl (R)-3-(1-((3-chloro-6-(2-(2-hydroxypropan-2-yl)pyrimidin-5-yl)quinolin-4-yl)amino)ethyl)-4-fluorobenzoate] | < 1000
C[C@@H](Nc1c(Cl)cnc2ccc(-c3cnc(C(C)(C)O)nc3)cc12)c1cc(C(=O)N(C)C)ccc1F [Example 417, (R)-3-(1-((3-chloro-6-(2-(2-hydroxypropan-2-yl)pyrimidin-5-yl)quinolin-4-yl)amino)ethyl)-4-fluoro-N,N-dimethylbenzamide] | < 1000
C[C@@H](Nc1c(Cl)cnc2ccc(-c3cnc(C(C)(C)O)nc3)cc12)c1cc(C=NO)ccc1F [Example 424, (R)-3-(1-((3-chloro-6-(2-(2-hydroxypropan-2-yl)pyrimidin-5-yl)quinolin-4-yl)amino)ethyl)-4-fluorobenzaldehyde oxime] | < 1000
C[C@@H](Nc1c(Cl)cnc2ccc(-c3cnc(C(C)(C)O)nc3)cc12)c1cc(S(N)(=O)=O)ccc1F [Example 426, (R)-3-(1-((3-chloro-6-(2-(2-hydroxypropan-2-yl)pyrimidin-5-yl)quinolin-4-yl)amino)ethyl)-4-fluorobenzenesulfonamide] | < 1000
Cc1nc2ccc(C3C=NC(C(C)(C)O)=NC3)cc2c(N[C@H](C)c2cc(CO)ccc2F)c1Cl (stereo partly drawn) [Example 432, (R)-2-(5-(3-chloro-4-((1-(2-fluoro-5-(hydroxymethyl)phenyl)ethyl)amino)-2-methylquinolin-6-yl)-4,5-dihydropyrimidin-2-yl)propan-2-ol] | < 1000
Cc1nc2ccc(-c3cnc(C(C)(C)O)nc3)cc2c(N[C@H](C)c2cc(OCCO)ccc2F)c1Cl [Example 435, (R)-2-(5-(3-chloro-4-((1-(2-fluoro-5-(2-hydroxyethoxy)phenyl)ethyl)amino)-2-methylquinolin-6-yl)pyrimidin-2-yl)propan-2-ol] | < 1000
Cc1nc2ccc(-c3cnc(C(C)(C)O)nc3)cc2c(N[C@H](C)c2cc(CC(=O)O)ccc2F)c1Cl [Example 436, (R)-2-(3-(1-((3-chloro-6-(2-(2-hydroxypropan-2-yl)pyrimidin-5-yl)-2-methylquinolin-4-yl)amino)ethyl)-4-fluorophenyl)acetic acid] | < 1000
Cc1nc2ccc(-c3cnc(C(C)(C)O)nc3)cc2c(N[C@H](C)c2cccc(OCC(=O)O)c2)c1Cl [Example 438, (R)-2-(3-(1-((3-chloro-6-(2-(2-hydroxypropan-2-yl)pyrimidin-5-yl)-2-methylquinolin-4-yl)amino)ethyl)phenoxy)acetic acid] | 1000 to 10000
Cc1nc2ccc(-c3cnc(C(C)(C)O)nc3)cc2c(N[C@H](C)c2cc(OCC(=O)O)ccc2F)c1Cl [Example 439, (R)-2-(3-(1-((3-chloro-6-(2-(2-hydroxypropan-2-yl)pyrimidin-5-yl)-2-methylquinolin-4-yl)amino)ethyl)-4-fluorophenoxy)acetic acid] | < 1000
Cc1nc2ccc(-c3cnc(C(C)(C)O)nc3)cc2c(N[C@H](C)c2ccccc2F)c1Cl [Example 441, (R)-2-(5-(3-chloro-4-((1-(2-fluorophenyl)ethyl)amino)-2-methylquinolin-6-yl)pyrimidin-2-yl)propan-2-ol] | < 1000
Cc1nc2ccc(-c3cnc(C(C)(C)O)nc3)cc2c(N[C@H](C)c2cc(OCCCO)ccc2F)c1Cl [Example 444, (R)-3-(3-(1-((3-chloro-6-(2-(2-hydroxypropan-2-yl)pyrimidin-5-yl)-2-methylquinolin-4-yl)amino)ethyl)-4-fluorophenoxy)propan-1-ol] | < 1000

Further lines, results first:

IC50 [nM] | Compound
1000 to 10000 | C[C@@H](Nc1c(Cl)cnc2ccc(-c3cnc(C(C)(C)O)nc3)cc12)c1cc(C(C)(C)O)ccc1F [Example 410, (R)-2-(5-(3-chloro-4-((1-(2-fluoro-5-(2-hydroxypropan-2-yl)phenyl)ethyl)amino)quinolin-6-yl)pyrimidin-2-yl)propan-2-ol]
< 1000 | C[C@@H](Nc1c(Cl)cnc2ccc(-c3cnc(C(C)(C)O)nc3)cc12)c1cc(-c2nnn(C)n2)ccc1F [Example 413, (R)-2-(5-(3-chloro-4-((1-(2-fluoro-5-(2-methyl-2H-tetrazol-5-yl)phenyl)ethyl)amino)quinolin-6-yl)pyrimidin-2-yl)propan-2-ol]
1000 to 10000 | CNC(=O)c1ccc(F)c([C@@H](C)Nc2c(Cl)cnc3ccc(-c4cnc(C(C)(C)O)nc4)cc23)c1 [Example 416, (R)-3-(1-((3-chloro-6-(2-(2-hydroxypropan-2-yl)pyrimidin-5-yl)quinolin-4-yl)amino)ethyl)-4-fluoro-N-methylbenzamide]
< 1000 | Cc1nc2ccc(-c3cnc(C(C)(C)O)nc3)cc2c(N[C@@H](c2cc(C(C)(C)O)ccc2F)C(F)F)c1Cl [Example 418, (S)-2-(5-(3-chloro-4-((2,2-difluoro-1-(2-fluoro-5-(2-hydroxypropan-2-yl)phenyl)ethyl)amino)-2-methylquinolin-6-yl)pyrimidin-2-yl)propan-2-ol]
< 1000 | C[C@@H](Nc1c(Cl)cnc2ccc(-c3cnc(C(C)(C)O)nc3)cc12)c1cc(-c2c[nH]nn2)ccc1F [Example 419, (R)-2-(5-(3-chloro-4-((1-(2-fluoro-5-(1H-1,2,3-triazol-4-yl)phenyl)ethyl)amino)quinolin-6-yl)pyrimidin-2-yl)propan-2-ol]
< 1000 | C[C@@H](Nc1c(Cl)cnc2ccc(-c3cnc(C(C)(C)O)nc3)cc12)c1cc(S(C)(=O)=O)ccc1F [Example 425, (R)-2-(5-(3-chloro-4-((1-(2-fluoro-5-(methylsulfonyl)phenyl)ethyl)amino)quinolin-6-yl)pyrimidin-2-yl)propan-2-ol]
1000 to 10000 | COC(=O)CCS(=O)(=O)c1ccc(F)c([C@@H](C)Nc2c(Cl)cnc3ccc(-c4cnc(C(C)(C)O)nc4)cc23)c1 [Example 427, Methyl (R)-3-((3-(1-((3-chloro-6-(2-(2-hydroxypropan-2-yl)pyrimidin-5-yl)quinolin-4-yl)amino)ethyl)-4-fluorophenyl)sulfonyl)propanoate]
10000 to 25000 | C[C@@H](Nc1c(Cl)cnc2ccc(-c3cnc(C(C)(C)O)nc3)cc12)c1cc(-c2cc(C(=O)O)[nH]n2)ccc1F [Example 428, (R)-3-(3-(1-((3-chloro-6-(2-(2-hydroxypropan-2-yl)pyrimidin-5-yl)quinolin-4-yl)amino)ethyl)-4-fluorophenyl)-1H-pyrazole-5-carboxylic acid]
< 1000 | C[C@@H](Nc1c(Cl)cnc2ccc(-c3cnc(C(C)(C)O)nc3)cc12)c1cc(CN)ccc1F [Example 429, (R)-2-(5-(4-((1-(5-(aminomethyl)-2-fluorophenyl)ethyl)amino)-3-chloroquinolin-6-yl)pyrimidin-2-yl)propan-2-ol]
< 1000 | C[C@@H](Nc1c(Cl)cnc2ccc(-c3cnc(C(C)(C)O)nc3)cc12)c1cc(CO)ccc1F [Example 430, (R)-2-(5-(3-chloro-4-((1-(2-fluoro-5-(hydroxymethyl)phenyl)ethyl)amino)quinolin-6-yl)pyrimidin-2-yl)propan-2-ol]
< 1000 | Cc1nc2ccc(-c3cnc(C(C)(C)O)nc3)cc2c(N[C@H](C)c2cc(CO)ccc2F)c1Cl [Example 431, (R)-2-(5-(3-chloro-4-((1-(2-fluoro-5-(hydroxymethyl)phenyl)ethyl)amino)-2-methylquinolin-6-yl)pyrimidin-2-yl)propan-2-ol]
< 1000 | Cc1nc2ccc(-c3cnc(C(C)(C)O)nc3)cc2c(N[C@H](C)c2cccc(OCCO)c2)c1Cl [Example 437, (R)-2-(5-(3-chloro-4-((1-(3-(2-hydroxyethoxy)phenyl)ethyl)amino)-2-methylquinolin-6-yl)pyrimidin-2-yl)propan-2-ol]
< 1000 | Cc1nc2cc(F)c(-c3cnc(C(C)(C)O)nc3)cc2c(N[C@H](C)c2cc(OCCCO)ccc2F)c1Cl [Example 443, (R)-3-(3-(1-((3-chloro-7-fluoro-6-(2-(2-hydroxypropan-2-yl)pyrimidin-5-yl)-2-methylquinolin-4-yl)amino)ethyl)-4-fluorophenoxy)propan-1-ol]
